Measurements: patent publication US20090018111A1, “Novel Antimicrobial Medicament” (priority 2004, published 2009)
Like-named read-outs stand apart in the source and are kept apart here.

What was measured:
E. faecalis ATCC19433 = assay: Sensitivity test (agar dilution); assay type: cell-based, Enterococcus faecalis; details: Enterococcus faecalis, E. faecalis ATCC19433
Outline: (§1)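 MICs were determined by agar dilution on Mueller Hinton agar containing twofold serial dilutions of single drugs or drug combinations. Overnight 37° C cultures were suspended in gelatin-buffered saline at about 10^6 CFU/ml, and about 5 μl was spot-inoculated. FIC index was calculated from MICs; ≤1 denotes enhancement.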

C. freundii GN346 = assay: Sensitivity test (agar dilution); assay type: cell-based, Citrobacter freundii; details: Citrobacter freundii, C. freundii GN346
Outline: as §1

S. marcescens X 100 = assay: Sensitivity test (agar dilution); assay type: cell-based, Serratia marcescens; details: Serratia marcescens, S. marcescens X 100
Outline: as §1

S. marcescens GN6473 = assay: Sensitivity test (agar dilution); assay type: cell-based, Serratia marcescens; details: Serratia marcescens, S. marcescens GN6473
Outline: as §1

[1] = tested on: S. aureus MS94088 (hetero-MRSA); assay: Sensitivity test (agar dilution); assay type: cell-based, Staphylococcus aureus; details: Staphylococcus aureus, MRSA, S. aureus MS94088 (hetero-MRSA)
Outline: as §1

S. aureus 209P = assay: Sensitivity test (agar dilution); assay type: cell-based, Staphylococcus aureus; details: Staphylococcus aureus, 209P, S. aureus 209P
Outline: as §1

[2] = tested on: S. aureus SP-7928 (homo-MRSA); assay: Sensitivity test (agar dilution); assay type: cell-based, Staphylococcus aureus; details: Staphylococcus aureus, MRSA, S. aureus SP-7928 (homo-MRSA)
Outline: as §1

Str. pyogenes Cook = assay: Sensitivity test (agar dilution); assay type: cell-based, Streptococcus pyogenes; details: Streptococcus pyogenes, Str. pyogenes Cook
Outline: as §1

M. luteus ATCC9341 = assay: Sensitivity test (agar dilution); assay type: cell-based, Micrococcus luteus; details: Micrococcus luteus, M. luteus ATCC9341
Outline: as §1

P. vurgalis OX-19 = assay: Sensitivity test (agar dilution); assay type: cell-based, Proteus vulgaris; details: Proteus vulgaris, P. vurgalis OX-19
Outline: as §1

P. vulgaris GN7919 = assay: Sensitivity test (agar dilution); assay type: cell-based, Proteus vulgaris; details: Proteus vulgaris, P. vulgaris GN7919
Outline: as §1

P. aeruginosa TL-2667 = assay: Sensitivity test (agar dilution); assay type: cell-based, Pseudomonas aeruginosa; details: Pseudomonas aeruginosa, P. aeruginosa TL-2667
Outline: as §1

E. coli ML1410 RP4 = assay: microbe, parasite or virus in culture; assay type: cell-based, Escherichia coli; details: Escherichia coli, E. coli ML1410 RP4
Outline: as §1

[3] = Concomitant (PIPC:SM = 1:1), read-out: MIC concomitant
[4] = drug alone, read-out: MIC alone

CCN1CCN(C(=O)N[C@@H](C(=O)N[C@@H]2C(=O)N3[C@@H]2SC(C)(C)[C@@H]3C(=O)O)c2ccccc2)C(=O)C1=O [PIPC, piperacillin]
MIC (E. faecalis ATCC19433; ATCC19433, Concomitant (PIPC:SM = 1:1), read-out: MIC concomitant): 0.5 µg/mL
MIC (E. faecalis ATCC19433; ATCC19433, drug alone, read-out: MIC alone): 2 µg/mL
MIC (C. freundii GN346; GN346, Concomitant (PIPC:SM = 1:1), read-out: MIC concomitant): 8 µg/mL
MIC (C. freundii GN346; GN346, drug alone, read-out: MIC alone): 1 µg/mL
MIC (S. marcescens X 100; X100, Concomitant (PIPC:SM = 1:1), read-out: MIC concomitant): 0.25 µg/mL
MIC (S. marcescens X 100; X100, drug alone, read-out: MIC alone): 0.5 µg/mL
MIC (S. marcescens GN6473; GN6473, Concomitant (PIPC:SM = 1:1), read-out: MIC concomitant): 4 µg/mL
MIC (S. marcescens GN6473; GN6473, drug alone, read-out: MIC alone): > 32 µg/mL
MIC [1, 3]: 0.125 µg/mL
MIC [1, 4]: > 32 µg/mL
MIC (S. aureus 209P; [3]): 0.004 µg/mL
MIC (S. aureus 209P; [4]): 0.25 µg/mL
MIC [2, 3]: 1 µg/mL
MIC [2, 4]: > 32 µg/mL
MIC (Str. pyogenes Cook; [3]): ≤ 0.002 µg/mL
MIC (Str. pyogenes Cook; [4]): 0.031 µg/mL
MIC (M. luteus ATCC9341; ATCC9341, Concomitant (PIPC:SM = 1:1), read-out: MIC concomitant): ≤ 0.002 µg/mL
MIC (M. luteus ATCC9341; ATCC9341, drug alone, read-out: MIC alone): 0.031 µg/mL
MIC (P. vurgalis OX-19; OX19, read-out: MIC alone, drug alone): 0.008 µg/mL
MIC (P. vurgalis OX-19; OX19, read-out: MIC concomitant, Concomitant (PIPC:SM = 1:1)): 0.008 µg/mL
MIC (P. vulgaris GN7919; GN7919, Concomitant (PIPC:SM = 1:1), read-out: MIC concomitant): 0.5 µg/mL
MIC (P. vulgaris GN7919; GN7919, drug alone, read-out: MIC alone): > 32 µg/mL
MIC (P. aeruginosa TL-2667; TL2667, Concomitant (PIPC:SM = 1:1), read-out: MIC concomitant): 16 µg/mL
MIC (P. aeruginosa TL-2667; TL2667, drug alone, read-out: MIC alone): 2 µg/mL
MIC (E. coli ML1410 RP4; ML1410RP4, read-out: MIC alone, drug alone): > 32 µg/mL
MIC (E. coli ML1410 RP4; ML1410RP4, read-out: MIC concomitant, Concomitant (PIPC:SM = 1:1)): 0.5 µg/mL
